{"source": "patent US10294202B2", "about": "“Pyrrolidinones as herbicides” (FMC Corporation, priority 2013, dated 2019)", "key": {"crabgrass, large": {"system": "crabgrass, large", "test": "Test C pre-/postemergence herbicide test", "assay_type": "in vivo, Digitaria sanguinalis", "procedure,_shortened": "(§1)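 Pre-emergence: seeds sown in loam/sand blend and treated with compound in surfactant-containing solvent. Post-emergence: plants at 2–18 cm (1- to 4-leaf stage) in peat-based medium sprayed with the same formulation. Visual rating versus controls after 13–15 days in greenhouse, scale 0 (no effect) to 100 (complete control).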"}, "blackgrass": {"system": "blackgrass", "test": "Test C pre-/postemergence herbicide test", "assay_type": "in vivo, Alopecurus myosuroides", "procedure,_shortened": "as §1"}, "ducksalad": {"system": "ducksalad", "test": "Test B flooded paddy test", "assay_type": "in vivo, Heteranthera limosa", "details": "500 g ai/ha, Flood; scale of 0 to 100 where 0 is no effect and 100 is complete control", "procedure,_shortened": "(§2)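 Treatment was made at the 2-leaf stage by dosing the standing floodwater, kept 3 cm above soil level for the whole test. Greenhouse exposure lasted 13 to 15 days. Response is a visual percent rating relative to controls, where a dash indicates no test result.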"}, "wheat": {"system": "wheat", "test": "Test A pre-/postemergence herbicide test", "assay_type": "in vivo, Triticum aestivum", "details": "Postemergence", "procedure,_shortened": "(§3)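 Seeds in loam–sand blend received preemergence directed soil spray; separately, plants 2–10 cm at one- to two-leaf stage received postemergence spray, both with test chemicals in non-phytotoxic solvent with surfactant. After ~10 days in greenhouse, injury rated visually against untreated controls, 0 (no effect) to 100 (complete control).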"}, "lambsquarters": {"system": "lambsquarters", "test": "Test C pre-/postemergence herbicide test", "assay_type": "in vivo, Chenopodium album", "procedure,_shortened": "as §1"}, "giant foxtail": {"system": "giant foxtail", "test": "Test A pre-/postemergence herbicide test", "assay_type": "in vivo, Setaria faberii", "procedure,_shortened": "as §3"}, "pigweed": {"system": "pigweed", "test": "Test C pre-/postemergence herbicide test", "assay_type": "in vivo, Amaranthus retroflexus", "procedure,_shortened": "as §1"}, "nutsedge, yellow": {"system": "nutsedge, yellow", "test": "Test C pre-/postemergence herbicide test", "assay_type": "in vivo, Cyperus esculentus", "procedure,_shortened": "as §1"}, "oilseed rape": {"system": "oilseed rape", "test": "Test C pre-/postemergence herbicide test", "assay_type": "in vivo, Brassica napus", "procedure,_shortened": "as §1"}, "barnyardgrass [1]": {"system": "barnyardgrass", "test": "Test C pre-/postemergence herbicide test", "assay_type": "in vivo, Echinochloa crus-galli", "procedure,_shortened": "as §1"}, "barnyardgrass [2]": {"system": "barnyardgrass", "test": "Test B flooded paddy test", "assay_type": "in vivo, Echinochloa crus-galli", "details": "500 g ai/ha, Flood; scale of 0 to 100 where 0 is no effect and 100 is complete control", "procedure,_shortened": "as §2"}, "rice": {"system": "rice", "test": "Test B flooded paddy test", "assay_type": "in vivo, Oryza sativa", "details": "500 g ai/ha, Flood; scale of 0 to 100 where 0 is no effect and 100 is complete control", "procedure,_shortened": "as §2"}, "[3]": {"details": "Postemergence, 16 g ai/ha, scale 0 to 100 (0 no effect, 100 complete control)"}, "[4]": {"details": "Postemergence, 31 g ai/ha, scale 0 to 100 (0 no effect, 100 complete control)"}, "[5]": {"details": "Postemergence, 62 g ai/ha, scale 0 (no effect) to 100 (complete control)"}, "[6]": {"details": "Postemergence, 125 g ai/ha, scale 0 to 100 (0 no effect, 100 complete control)"}, "[7]": {"details": "Preemergence, 31 g ai/ha, scale 0 to 100, 0 is no effect and 100 is complete control"}, "[8]": {"details": "Preemergence, 62 g ai/ha, scale 0 to 100 (0 no effect, 100 complete control)"}, "[9]": {"details": "Preemergence, 125 g ai/ha, scale 0 to 100 (0 no effect, 100 complete control)"}, "[10]": {"details": "Preemergence, 16 g ai/ha, scale 0 to 100"}}, "data": [{"smiles": "CN1CC(c2ccc(C(F)(F)F)cc2)C(C(=O)Nc2ccccc2F)C1=O", "note": "(centres unmarked) [Compound 304]", "values": [{"measurement": "Plant response rating, Crabgrass, Large", "setting": "crabgrass, large; [3]", "value": 10}, {"measurement": "Plant response rating, Crabgrass, Large", "setting": "crabgrass, large; [4]", "value": 10}, {"measurement": "Plant response rating, Crabgrass, Large", "setting": "crabgrass, large; [5]", "value": 60}, {"measurement": "Plant response rating, Crabgrass, Large", "setting": "crabgrass, large; [6]", "value": 80}, {"measurement": "Crabgrass, Large plant response rating", "setting": "crabgrass, large; [7]", "value": 95}, {"measurement": "Crabgrass, Large plant response rating", "setting": "crabgrass, large; [8]", "value": 95}, {"measurement": "Plant response rating, Crabgrass, Large", "setting": "crabgrass, large; [9]", "value": 98}, {"measurement": "Plant response rating, Crabgrass, Large", "setting": "crabgrass, large; [10]", "value": 90}, {"measurement": "Plant response rating, Blackgrass", "setting": "blackgrass; [3]", "value": 0}, {"measurement": "Plant response rating, Blackgrass", "setting": "blackgrass; [4]", "value": 0}, {"measurement": "Plant response rating, Blackgrass", "setting": "blackgrass; [5]", "value": 0}, {"measurement": "Plant response rating, Blackgrass", "setting": "blackgrass; [6]", "value": 0}, {"measurement": "Blackgrass plant response rating", "setting": "blackgrass; [7]", "value": 35}, {"measurement": "Blackgrass plant response rating", "setting": "blackgrass; [8]", "value": 60}, {"measurement": "Plant response rating, Blackgrass", "setting": "blackgrass; [9]", "value": 70}, {"measurement": "Plant response rating, Blackgrass", "setting": "blackgrass; [10]", "value": 30}, {"measurement": "Plant response rating, Ducksalad", "setting": "ducksalad", "value": 100}, {"measurement": "Plant response rating, Wheat", "setting": "wheat; 125 g ai/ha, visual rating on 0 to 100 scale (0 no effect, 100 complete control), approx. 10 days", "value": 40}, {"measurement": "Plant response rating, Wheat", "setting": "wheat; 500 g ai/ha, 0 to 100 scale (0 no effect, 100 complete control)", "value": 60}, {"measurement": "Plant response rating, Lambsquarters", "setting": "lambsquarters; [3]", "value": 65}, {"measurement": "Plant response rating, Lambsquarters", "setting": "lambsquarters; [4]", "value": 35}, {"measurement": "Plant response rating, Lambsquarters", "setting": "lambsquarters; [5]", "value": 75}, {"measurement": "Plant response rating, Lambsquarters", "setting": "lambsquarters; [6]", "value": 70}, {"measurement": "Lambsquarters plant response rating", "setting": "lambsquarters; [7]", "value": 65}, {"measurement": "Lambsquarters plant response rating", "setting": "lambsquarters; [8]", "value": 70}, {"measurement": "Plant response rating, Lambsquarters", "setting": "lambsquarters; [9]", "value": 80}, {"measurement": "Plant response rating, Lambsquarters", "setting": "lambsquarters; [10]", "value": 30}, {"measurement": "Plant response rating, Foxtail, Giant", "setting": "giant foxtail; Postemergence, 125 g ai/ha, visual rating on 0 to 100 scale (0 no effect, 100 complete control), approx. 10 days", "value": 80}, {"measurement": "Plant response rating, Foxtail, Giant", "setting": "giant foxtail; Postemergence, 500 g ai/ha, 0 to 100 scale (0 no effect, 100 complete control)", "value": 80}, {"measurement": "Plant response rating, Foxtail, Giant", "setting": "giant foxtail; Preemergence, 125 g ai/ha, 0 to 100 scale where 0 is no effect and 100 is complete control", "value": 90}, {"measurement": "Foxtail, Giant plant response rating", "setting": "giant foxtail; Preemergence, 500 g ai/ha, visual rating on 0 to 100 scale (0 no effect, 100 complete control)", "value": 90}, {"measurement": "Plant response rating, Pigweed", "setting": "pigweed; [3]", "value": 25}, {"measurement": "Plant response rating, Pigweed", "setting": "pigweed; [4]", "value": 35}, {"measurement": "Plant response rating, Pigweed", "setting": "pigweed; [5]", "value": 55}, {"measurement": "Plant response rating, Pigweed", "setting": "pigweed; [6]", "value": 55}, {"measurement": "Pigweed plant response rating", "setting": "pigweed; [7]", "value": 55}, {"measurement": "Pigweed plant response rating", "setting": "pigweed; [8]", "value": 75}, {"measurement": "Plant response rating, Pigweed", "setting": "pigweed; [9]", "value": 85}, {"measurement": "Plant response rating, Pigweed", "setting": "pigweed; [10]", "value": 40}, {"measurement": "Plant response rating, Nutsedge, Yellow", "setting": "nutsedge, yellow; [3]", "value": 0}, {"measurement": "Plant response rating, Nutsedge, Yellow", "setting": "nutsedge, yellow; [4]", "value": 0}, {"measurement": "Plant response rating, Nutsedge, Yellow", "setting": "nutsedge, yellow; [5]", "value": 0}, {"measurement": "Plant response rating, Nutsedge, Yellow", "setting": "nutsedge, yellow; [6]", "value": 0}, {"measurement": "Nutsedge, Yellow plant response rating", "setting": "nutsedge, yellow; [7]", "value": 0}, {"measurement": "Nutsedge, Yellow plant response rating", "setting": "nutsedge, yellow; [8]", "value": 25}, {"measurement": "Plant response rating, Nutsedge, Yellow", "setting": "nutsedge, yellow; [9]", "value": 0}, {"measurement": "Plant response rating, Nutsedge, Yellow", "setting": "nutsedge, yellow; [10]", "value": 0}, {"measurement": "Plant response rating, Oilseed Rape", "setting": "oilseed rape; [3]", "value": 0}, {"measurement": "Plant response rating, Oilseed Rape", "setting": "oilseed rape; [4]", "value": 0}, {"measurement": "Plant response rating, Oilseed Rape", "setting": "oilseed rape; [5]", "value": 0}, {"measurement": "Plant response rating, Oilseed Rape", "setting": "oilseed rape; [6]", "value": 0}, {"measurement": "Oilseed Rape plant response rating", "setting": "oilseed rape; [7]", "value": 50}, {"measurement": "Oilseed Rape plant response rating", "setting": "oilseed rape; [8]", "value": 55}, {"measurement": "Plant response rating, Oilseed Rape", "setting": "oilseed rape; [9]", "value": 55}, {"measurement": "Plant response rating, Oilseed Rape", "setting": "oilseed rape; [10]", "value": 30}, {"measurement": "Plant response rating, Barnyardgrass", "setting": "barnyardgrass [1]; [3]", "value": 0}, {"measurement": "Plant response rating, Barnyardgrass", "setting": "barnyardgrass [1]; [4]", "value": 0}, {"measurement": "Plant response rating, Barnyardgrass", "setting": "barnyardgrass [1]; [5]", "value": 0}, {"measurement": "Plant response rating, Barnyardgrass", "setting": "barnyardgrass [1]; [6]", "value": 40}, {"measurement": "Barnyardgrass plant response rating", "setting": "barnyardgrass [1]; [7]", "value": 85}, {"measurement": "Barnyardgrass plant response rating", "setting": "barnyardgrass [1]; [8]", "value": 90}, {"measurement": "Plant response rating, Barnyardgrass", "setting": "barnyardgrass [1]; [9]", "value": 95}, {"measurement": "Plant response rating, Barnyardgrass", "setting": "barnyardgrass [1]; [10]", "value": 85}, {"measurement": "Plant response rating, Barnyardgrass", "setting": "barnyardgrass [2]", "value": 80}, {"measurement": "Plant response rating, Rice", "setting": "rice", "value": 35}]}]}
